Consider eight molecules from patent US20240417410A1, “TRICYCLIC COMPOUNDS FOR THE TREATMENT OF CANCER” (Hoffmann-La Roche Inc., priority 2023, published 2024).

The subject of one assay is AGS cells (KRAS G12D). The assay can be described thus: Cell viability assay (Cell Counting Kit-8, 3-day). In kind it is cell-based, human. As to conditions: Homo sapiens, 72 h, 72 hrs incubation. Put shortly:
(§1)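 72-hr compound treatment, 0.5% DMSO final; NCI-H358 seeded 5,000 cells/well, AGS and SW620 2,000 cells/well. Endpoint: CCK-8, 2-hr development, OD450 minus OD650.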

Assay [1] relates to NCI-H358 cells (KRAS G12C). The assay can be described thus: Cell viability assay (Cell Counting Kit-8, 3-day). It is filed as cell-based, human. As to conditions: Homo sapiens, NCI-H358, 72 h, NCI-H358, 72 hrs incubation. The method, boiled down:
as §1

The next assay concerns SW620 cells (KRAS G12V). As to the kind of experiment: Cell viability assay (Cell Counting Kit-8, 3-day). It is filed as cell-based, human. As to conditions: Homo sapiens, SW-620; SW620, 72 hrs incubation. Put shortly: as §1
In a further assay the target is KRAS G12C-BRAF complex (Homo sapiens (Human), UniProt P01116+P62937, G12C). The assay can be described thus: KRAS-BRAF with CYPA (500 nM) interaction assay (TR-FRET, Example 136). As to conditions: KRAS G12C-BRAF disruption. It is filed as biochemical. As for the experimental part:
In this example, TR-FRET was also used to measure the compound or compound-CYPA dependent disruption of the KRAS G12C-BRAF complex. This protocol was also used to measure disruption of KRAS G12D or KRAS G12V binding to BRAF by a compound of the invention, respectively. In assay buffer containing 25 mM HEPES PH=7.4 (4-(2-hydroxyethyl)-1-piperazineethanesulfonic acid, Thermo, 15630080), 0.002% Tween20, 0.1% BSA, 100 mM NaCl, 5 mM MgCl2, 10 μM GMPPNP (Guanosine 5′-[β,γ-imido]triphosphate trisodium salt hydrate, Sigma, G0635), […] 384-well assay plate at final concentrations of 50 nM, 6.25 nM and 1 nM, respectively. Compound was present in plate wells as a 16-point 3-fold dilution series starting at a final concentration of 10 μM and incubated for 3 hours. A mixture of MAb Anti-6His-XL665 (Cisbio, 61HISXLB) and Mab anti-GST-TB cryptate (Cisbio, 61GSTTLB) was then added at a final concentration of 6.67 nM and 0.21 nM, respectively, and the plate was incubated for an additional 1.5 hours. TR-FRET signal was read on a PHERstar FSX microplate reader (Ex320 nm, Em 665/615 nm). Compounds that facilitate disruption of the KRAS-BRAF complex were identified as those eliciting a decrease in the TR-FRET ratio relative to DMSO control wells.

For assay [2], the system named is phosphorylation of ERK, KRAS G12C in NCI-H358 cells. As to the kind of experiment: pERK inhibition assay. It is filed as cell-based. Particulars: Homo sapiens, NCI-H358, 4 h. Put shortly: (§2)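 Cells in RPMI-1640 with 10% FBS were plated overnight (30,000/well H358, 20,000 AGS, 30,000 SW620) and treated 4 h with compounds at 0.5% DMSO. After formaldehyde fixation and methanol permeabilization, pERK was detected by in-cell ELISA with HRP secondary and TMB (OD450); IC50 from 4-parameter fit.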

For assay [3], the system named is phosphorylation of ERK, KRAS G12D in AGS cells. The assay can be described thus: pERK inhibition assay. In kind it is cell-based. Particulars: Homo sapiens, AGS, 4 h. Put shortly:
as §2

Assay [4] relates to phosphorylation of ERK, KRAS G12V in SW620. As to the kind of experiment: pERK inhibition assay. It is filed as cell-based. Particulars: Homo sapiens, SW-620, 4 h, SW620 cells. Put shortly: as §2

Sequence of KRAS G12C-BRAF complex (P01116-2 other isoform, or with tags, fused parts or gaps G12C): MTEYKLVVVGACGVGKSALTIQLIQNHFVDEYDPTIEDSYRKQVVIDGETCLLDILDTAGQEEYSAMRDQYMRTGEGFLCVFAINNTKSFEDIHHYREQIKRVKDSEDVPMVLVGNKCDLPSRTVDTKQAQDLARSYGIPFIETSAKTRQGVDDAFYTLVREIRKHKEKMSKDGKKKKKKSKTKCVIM
Sequence of KRAS G12C-BRAF complex (P62937 whole entry): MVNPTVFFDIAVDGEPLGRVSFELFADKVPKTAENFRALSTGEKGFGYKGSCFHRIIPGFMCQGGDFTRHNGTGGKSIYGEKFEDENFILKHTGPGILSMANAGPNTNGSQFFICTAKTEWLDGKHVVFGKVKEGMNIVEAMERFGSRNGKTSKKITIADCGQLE

Regarding `CO[C@@H](C)c1ncc(N2CCN(C3CCOCC3)CC2)cc1-c1c2c3cc(cc4c3n1CCC4)-c1csc(n1)C[C@H](NC(=O)[C@H]1[C@H](C)[C@@H]1C)C(=O)N1CCC[C@H](N1)C(=O)OCC(C)(C)C2` (atropisomer, axis not shown; (M)) [Example 117, (1r,2R,3S)-N-[(7S,13S)-(20M)-20-[2-[(1S)-1-methoxyethyl]-5-(4-tetrahydropyran-4-ylpiperazin-1-yl)-3-pyridyl]-17,17-dimethyl-8,14-dioxo-15-oxa-4-thia-9,21,30,31-tetrazahexacyclo[23.3.1.1^2,5.1^9,13.0^19,27.0^21,26]hentriaconta-1 (28),2,5 (31), 19,25 (29),26-hexaen-7-yl]-2,3-dimethyl-cyclopropanecarboxamide], the IC50 in the assay on AGS cells (KRAS G12D) came out at 2.5 nM; in assay [1] it was 1.5 nM; with SW620 cells (KRAS G12V), 0.2 nM; against KRAS G12C-BRAF complex, 15.9 nM; in assay [2], 0.7 nM; in assay [3], 4.1 nM. In assay [4], this molecule gave an IC50 of 0.3 nM.
As to `COCCN1CCN(c2cnc([C@H](C)OC)c(-c3c4c5cc(cc6c5n3CCC6)-c3csc(n3)C[C@H](NC(=O)[C@H]3[C@H](C)[C@@H]3C)C(=O)N3CCC[C@H](N3)C(=O)OCC(C)(C)C4)c2)CC1` (atropisomer, axis not shown; (M)) [Example 115, (1r,2S,3R)-N-[(7S,13S)-(20M)-20-[2-[(1S)-1-methoxyethyl]-5-[4-(2-methoxyethyl)piperazin-1-yl]-3-pyridyl]-17,17-dimethyl-8,14-dioxo-15-oxa-4-thia-9,21,30,31-tetrazahexacyclo[23.3.1.1^2,5.1^9,13.0^19,27.0^21,26]hentriaconta-1 (28),2,5 (31), 19,25 (29),26-hexaen-7-yl]-2,3-dimethyl-cyclopropanecarboxamide], the IC50 amounted to 3.4 nM with AGS cells (KRAS G12D); 1.7 nM in assay [1]; 0.4 nM with SW620 cells (KRAS G12V); 18.5 nM on KRAS G12C-BRAF complex; 0.8 nM in assay [2]; 2.6 nM in assay [3]. In assay [4], this molecule gave an IC50 of 0.2 nM.
As for `CO[C@@H](C)c1ncc(N2CCN(CC(F)(F)F)CC2)cc1-c1c2c3cc(cc4c3n1CCO4)-c1csc(n1)C[C@H](NC(=O)[C@H]1C[C@@H]1C(F)F)C(=O)N1CCC[C@H](N1)C(=O)OCC(C)(C)C2` (atropisomer, axis not shown; (M)) [Example 11, (1S,2S)-2-(difluoromethyl)-N-[(7S,13S)-(20M)-20-[2-[(1S)-1-methoxyethyl]-5-[4-(2,2,2-trifluoroethyl)piperazin-1-yl]-3-pyridyl]-17,17-dimethyl-8,14-dioxo-15,24-dioxa-4-thia-9,21,30,31-tetrazahexacyclo[23.3.1.1^2,5.1^9,13.0^19,27.0^21,26]hentriaconta-1 (28),2,5 (31),19,25 (29),26-hexaen-7-yl]cyclopropanecarboxamide], the IC50 with AGS cells (KRAS G12D) is 38.4 nM; in assay [1], 18.8 nM; in the assay on SW620 cells (KRAS G12V), 2.4 nM; against KRAS G12C-BRAF complex, 12.4 nM; in assay [2], 5.1 nM; in assay [3], 2.9 nM. The IC50 in assay [4] is 0.8 nM.
In the case of `CO[C@@H](C)c1ncc(N2CCN(C)CC2)cc1-c1c2c3cc(cc4c3n1CCC4)-c1csc(n1)C[C@H](NC(=O)C13CC(CO1)C3)C(=O)N1CCC[C@H](N1)C(=O)OCC(C)(C)C2` [Example 66, N-[(7S,13S)-(20M)-20-[2-[(1S)-1-methoxyethyl]-5-(4-methylpiperazin-1-yl)-3-pyridyl]-17,17-dimethyl-8,14-dioxo-15-oxa-4-thia-9,21,30,31-tetrazahexacyclo[23.3.1.1^2,5.1^9,13.0^19,27.0^21,26]hentriaconta-1 (28),2,5 (31), 19,25 (29),26-hexaen-7-yl]-2-oxabicyclo[2.1.1]hexane-1-carboxamide], the IC50 against KRAS G12C-BRAF complex came to 50.5 nM; in assay [2], 2.6 nM; in assay [3], 40.2 nM; in assay [4] it was 3.3 nM.
On to `CO[C@@H](C)c1ncc(N2CCOCC2)cc1-c1c2c3cc(cc4c3n1[C@@H](C)CO4)-c1csc(n1)C[C@H](NC(=O)[C@H]1C[C@@H]1C)C(=O)N1CCC[C@H](N1)C(=O)OCC(C)(C)C2` (atropisomer, axis not shown; (M)) [Example 53, (1S,2S)-N-[(7S,13S,22S)-(20M)-20-[2-[(1S)-1-methoxyethyl]-5-morpholino-3-pyridyl]-17,17,22-trimethyl-8,14-dioxo-15,24-dioxa-4-thia-9,21,30,31-tetrazahexacyclo[23.3.1.1^2,5.1^9,13.0^19,27.0^21,26]hentriaconta-1 (28),2,5 (31), 19,25 (29),26-hexaen-7-yl]-2-methyl-cyclopropanecarboxamide], for which the IC50 on KRAS G12C-BRAF complex is 65.7 nM; in assay [2] it was 21.2 nM; in assay [3], 176 nM; in assay [4] it was 24.5 nM.
For `CO[C@@H](C)c1ncc(N2CCN(C)CC2)cc1-c1c2c3cc(cc4c3n1CCC4)-c1csc(n1)C[C@H](NC(=O)C1CCC(F)(F)C1)C(=O)N1CCC[C@H](N1)C(=O)OCC(C)(C)C2` (stereo partly drawn) [Example 65, 3,3-difluoro-N-[(7S,13S)-(20M)-20-[2-[(1S)-1-methoxyethyl]-5-(4-methylpiperazin-1-yl)-3-pyridyl]-17,17-dimethyl-8,14-dioxo-15-oxa-4-thia-9,21,30,31-tetrazahexacyclo[23.3.1.1^2,5.1^9,13.0^19,27.0^21,26]hentriaconta-1 (28),2,5 (31), 19,25 (29),26-hexaen-7-yl]cyclopentanecarboxamide] the same measures were 51.3 nM, 2.3 nM, 31.7 nM and 5 nM.
Take `CO[C@@H](C)c1ncc(N2CCN(C)CC2)cc1-c1c2c3cc(cc4c3n1CCC4)-c1csc(n1)C[C@H](NC(=O)[C@H]1CC[C@](C)(O)CC1)C(=O)N1CCC[C@H](N1)C(=O)OCC(C)(C)C2` (atropisomer, axis not shown; (M)) [Example 71, trans-4-hydroxy-N-[(7S,13S)-(20M)-20-[2-[(1S)-1-methoxyethyl]-5-(4-methylpiperazin-1-yl)-3-pyridyl]-17,17-dimethyl-8,14-dioxo-15-oxa-4-thia-9,21,30,31-tetrazahexacyclo[23.3.1.1^2,5.1^9,13.0^19,27.0^21,26]hentriaconta-1 (28),2,5 (31), 19,25 (29),26-hexaen-7-yl]-4-methyl-cyclohexanecarboxamide]: the IC50 against KRAS G12C-BRAF complex stood at 28.9 nM; in assay [2], 3.6 nM; in assay [3], 51.5 nM; in assay [4], 6.5 nM.
For `CO[C@@H](C)c1ncc(N2CCN(CC(F)(F)F)CC2)cc1-c1c2c3cc(cc4c3n1CCC4)-c1csc(n1)C[C@H](NC(=O)[C@H]1C[C@@H]1C)C(=O)N1CCC[C@H](N1)C(=O)OCC(C)(C)C2` (atropisomer, axis not shown; (M)) [Example 3, (1S,2S)-N-[(7S,13S)-(20M)-20-[2-[(1S)-1-methoxyethyl]-5-[4-(2,2,2-trifluoroethyl)piperazin-1-yl]-3-pyridyl]-17,17-dimethyl-8,14-dioxo-15-oxa-4-thia-9,21,30,31-tetrazahexacyclo[23.3.1.1^2,5.1^9,13.0^19,27.0^21,26]hentriaconta-1 (28),2,5 (31), 19,25 (29),26-hexaen-7-yl]-2-methyl-cyclopropanecarboxamide] the same measures were 31.4 nM, 5.1 nM, 24.3 nM and 3.6 nM.
